One test deals with cancer cell. Briefly: Cell viability assay (resazurin). It is filed as cell-based. The following applies: 72 h; 3 days with compound, resazurin fluorescence; cell line not named. Put shortly:
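Cells in DMEM GlutaMAX or line-appropriate medium are exposed to compound for 3 days at 37 °C, 5% CO2. Viability is read as resazurin fluorescence (Ex544/Em590) after 2 h incubation. In the 384-well format, cells are seeded onto 11 pre-dispensed concentrations (final DMSO <1%) and read after 3 h resazurin.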
A general note: Resazurin is reduced to fluorescent resorufin, in cell work by metabolically active cells.

The target of the next test is MTH1 (Homo sapiens, UniProt P36639). Kind of test: MTH1 enzymatic assay and IC50 value determination (malachite green, 96- and 384-well format). It is filed as biochemical. The following applies: hydrolysis of dGTP (100 μM), MTH1 6 nM, pyrophosphatase-coupled malachite green, 15 minutes at 22° C. Put shortly:
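MTH1 (6 nM) hydrolysed dGTP (100 μM) for 15 min at 22 °C in Tris-acetate buffer with Mg2+, DTT, Tween 20 and excess pyrophosphatase, 1% DMSO. Pi detected with malachite green at 630 nm. IC50 from nonlinear 4-parameter fit of 11–12-point dilution series.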

The source of these data is patent US10179790B2 (THOMAS HELLEDAYS STIFTELSE FOR MEDICINSK FORSKNING, priority 2014, dated 2019).

Broadly, the IC50 is the concentration that gives 50% inhibition.

For the molecule `CCNC(=S)Nc1ccc(CCNc2cc(-c3cccc(Cl)c3C)nc(N)n2)cc1` [Example 117, 1-[4-[2-[[2-amino-6-(3-chloro-2-methyl-phenyl)pyrimidin-4-yl]amino]ethyl]phenyl]-3-ethyl-thiourea], the IC50 in the test with cancer cell is less than 500 nM; against MTH1, less than 200 nM.

Turning to `Cc1c(Cl)cccc1-c1cc(NCCc2ccc(NC(=O)N3CCOCC3)cc2)nc(N)n1` [Example 118, N-[4-[2-[[2-amino-6-(3-chloro-2-methyl-phenyl)pyrimidin-4-yl]amino]ethyl]phenyl]morpholine-4-carboxamide], the concentration for half-maximal inhibition (IC50) with cancer cell is less than 500 nM; against MTH1 it was less than 200 nM.

As to `Cc1c(Cl)cccc1-c1cc(NCCc2ccc(NC(=O)OC(C)C)cc2)nc(N)n1` [Example 119, isopropyl N-[4-[2-[[2-amino-6-(3-chloro-2-methyl-phenyl)pyrimidin-4-yl]amino]ethyl]phenyl]carbamate], the IC50 in the test with cancer cell was less than 500 nM; against MTH1 it was less than 200 nM.

Regarding `Cc1c(Cl)cccc1-c1cc(NCCc2ccc(NC(=O)OCC(C)C)cc2)nc(N)n1` [Example 120, isobutyl N-[4-[2-[[2-amino-6-(3-chloro-2-methyl-phenyl)pyrimidin-4-yl]amino]ethyl]phenyl]carbamate], the values for the IC50 in the test with cancer cell and against MTH1 were less than 500 nM and less than 200 nM, respectively.

As for `Cc1c(Cl)cccc1-c1cc(NCCc2ccc(NC(=O)OCC(C)(C)C)cc2)nc(N)n1` [Example 121, 2,2-dimethylpropyl N-[4-[2-[[2-amino-6-(3-chloro-2-methyl-phenyl)pyrimidin-4-yl]amino]ethyl]phenyl]carbamate], the IC50 with cancer cell is less than 500 nM; against MTH1, less than 200 nM.

`COCCOC(=O)Nc1ccc(CCNc2cc(-c3cccc(Cl)c3C)nc(N)n2)cc1` [Example 122, 2-methoxyethyl N-[4-[2-[[2-amino-6-(3-chloro-2-methyl-phenyl)pyrimidin-4-yl]amino]ethyl]phenyl]carbamate]: the IC50 in the test on cancer cell is less than 500 nM; at MTH1, less than 200 nM.

Turning to `CC#CCOC(=O)Nc1ccc(CCNc2cc(-c3cccc(Cl)c3C)nc(N)n2)cc1` [Example 123, but-2-ynyl N-[4-[2-[[2-amino-6-(3-chloro-2-methyl-phenyl)pyrimidin-4-yl]amino]ethyl]phenyl]carbamate], the IC50 in the test on cancer cell is less than 500 nM; at MTH1, less than 200 nM.

Take `Cc1c(Cl)cccc1-c1cc(NCCc2ccc(NC#N)cc2)nc(N)n1` [Example 124, [4-[2-[[2-amino-6-(3-chloro-2-methyl-phenyl)pyrimidin-4-yl]amino]ethyl]phenyl]cyanamide]: the results for the half-inhibitory concentration (IC50) in the test on cancer cell and on MTH1 were less than 500 nM and less than 200 nM, respectively.

On to `Cc1cccc(-c2cc(NCCNc3ccnc(N)n3)nc(N)n2)c1C` [Example 126, 4-N-(2-{[2-amino-6-(2,3-dimethylphenyl)pyrimidin-4-yl]amino}ethyl)pyrimidine-2,4-diamine], for which the IC50 in the test with cancer cell was less than 500 nM; at MTH1 it was less than 200 nM.

Consider `Cc1cccc(-c2cc(NCCNc3ccc(N)nc3)nc(N)n2)c1C` [Example 127, 5-N-(2-{[2-amino-6-(2,3-dimethylphenyl)pyrimidin-4-yl]amino}ethyl)pyridine-2,5-diamine], for which the concentration for half-maximal inhibition (IC50) in the test with cancer cell is less than 500 nM; against MTH1, less than 200 nM.

Turning to `Cc1cccc(-c2cc(NCCNc3ccc(N)cc3F)nc(N)n2)c1C` [Example 128, 1-N-(2-{[2-amino-6-(2,3-dimethylphenyl)pyrimidin-4-yl]amino}ethyl)-2-fluorobenzene-1,4-diamine], the figures for the IC50 in the test with cancer cell and at MTH1 were less than 500 nM and less than 200 nM, respectively.

For `Cc1c(Cl)cccc1-c1cc(NCCCNc2ccc(C(N)=O)cc2)nc(N)n1` [Example 143, 4-[3-[[2-amino-6-(3-chloro-2-methyl-phenyl)pyrimidin-4-yl]amino]propylamino]benzamide], the results for the half-maximal inhibitory concentration (IC50) in the test with cancer cell and against MTH1 were less than 500 nM and less than 200 nM, respectively.

In the case of `CNS(=O)(=O)c1ccc(NCCCNc2cc(-c3cccc(Cl)c3C)nc(N)n2)cc1` [Example 144, 4-[3-[[2-amino-6-(3-chloro-2-methyl-phenyl)pyrimidin-4-yl]amino]propylamino]-N-methyl-benzenesulfonamide], the 50% inhibitory concentration (IC50) is less than 500 nM in the test with cancer cell and less than 200 nM against MTH1.

As to `Cc1nc2ccc(NCCCNc3cc(-c4cccc(Cl)c4C)nc(N)n3)cc2s1` [Example 145, 6-(3-chloro-2-methyl-phenyl)-N4-[3-[(2-methyl-1,3-benzothiazol-6-yl)amino]propyl]pyrimidine-2,4-diamine], the figures for the IC50 in the test on cancer cell and at MTH1 were less than 500 nM and less than 200 nM, respectively.

`Cc1c(Cl)cccc1-c1cc(NCCNc2nccc(C(N)=O)n2)nc(N)n1` [Example 146, 2-[2-[[2-amino-6-(3-chloro-2-methyl-phenyl)pyrimidin-4-yl]amino]ethylamino]pyrimidine-4-carboxamide]: the half-maximal inhibitory concentration (IC50) was less than 500 nM with cancer cell and less than 200 nM at MTH1.

`CCNC(=O)Nc1cccc(CCNc2cc(-c3cccc(Cl)c3C)nc(N)n2)c1` [Example 148, 1-[3-[2-[[2-amino-6-(3-chloro-2-methyl-phenyl)pyrimidin-4-yl]amino]ethyl]phenyl]-3-ethyl-urea]: the IC50 was less than 500 nM in the test with cancer cell and less than 200 nM on MTH1.

Consider `Cc1c(Cl)cccc1-c1cc(NCCc2cccc(NC(=O)NC(C)(C)C)c2)nc(N)n1` [Example 149, 1-[3-[2-[[2-amino-6-(3-chloro-2-methyl-phenyl)pyrimidin-4-yl]amino]ethyl]phenyl]-3-tert-butyl-urea], for which the values for the 50% inhibitory concentration (IC50) in the test with cancer cell and at MTH1 were less than 500 nM and less than 200 nM, respectively.

As to `Cc1c(Cl)cccc1-c1cc(NCCc2cccc(NC(=O)N3CCOCC3)c2)nc(N)n1` [Example 150, N-[3-[2-[[2-amino-6-(3-chloro-2-methyl-phenyl)pyrimidin-4-yl]amino]ethyl]phenyl]morpholine-4-carboxamide], the concentration for half-maximal inhibition (IC50) in the test with cancer cell is less than 500 nM; against MTH1, less than 200 nM.

Consider `Cc1c(Cl)cccc1-c1cc(NCCc2cccc(NC(=O)N(C)C)c2)nc(N)n1` [Example 151, 3-[3-[2-[[2-amino-6-(3-chloro-2-methyl-phenyl)pyrimidin-4-yl]amino]ethyl]phenyl]-1,1-dimethyl-urea], for which the values for the IC50 in the test with cancer cell and against MTH1 were less than 500 nM and less than 200 nM, respectively.

In the case of `Cc1c(Cl)cccc1-c1cc(NCCc2cccc(NC(=O)N3CCCC3)c2)nc(N)n1` [Example 152, N-[3-[2-[[2-amino-6-(3-chloro-2-methyl-phenyl)pyrimidin-4-yl]amino]ethyl]phenyl]pyrrolidine-1-carboxamide], the half-inhibitory concentration (IC50) in the test with cancer cell is less than 500 nM; on MTH1, less than 200 nM.

Consider `Cc1c(Cl)cccc1-c1cc(NCCc2cccc(NC(=O)OC(C)C)c2)nc(N)n1` [Example 153, isopropyl N-[3-[2-[[2-amino-6-(3-chloro-2-methyl-phenyl)pyrimidin-4-yl]amino]ethyl]phenyl]carbamate], for which the IC50 in the test on cancer cell is less than 500 nM; against MTH1, less than 200 nM.

Take `Cc1c(Cl)cccc1-c1cc(NCCc2cccc(NC(=O)OCC(C)C)c2)nc(N)n1` [Example 154, isobutyl N-[3-[2-[[2-amino-6-(3-chloro-2-methyl-phenyl)pyrimidin-4-yl]amino]ethyl]phenyl]carbamate]: the half-maximal inhibitory concentration (IC50) is less than 500 nM in the test with cancer cell and less than 200 nM on MTH1.

As to `Cc1c(Cl)cccc1-c1cc(NCCc2cccc(NC(=O)OCC(C)(C)C)c2)nc(N)n1` [Example 155, 2,2-dimethylpropyl N-[3-[2-[[2-amino-6-(3-chloro-2-methyl-phenyl)pyrimidin-4-yl]amino]ethyl]phenyl]carbamate], the values for the half-maximal inhibitory concentration (IC50) in the test with cancer cell and against MTH1 were less than 500 nM and less than 200 nM, respectively.

On to `Cc1c(Cl)cccc1-c1cc(NCCNc2ncc(C(N)=O)c(C(F)(F)F)n2)nc(N)n1` [Example 159, 2-[2-[[2-amino-6-(3-chloro-2-methyl-phenyl)pyrimidin-4-yl]amino]ethylamino]-4-(trifluoromethyl)pyrimidine-5-carboxamide], for which the IC50 with cancer cell was less than 500 nM; against MTH1, less than 200 nM.

For the molecule `Cc1c(Cl)cccc1-c1cc(NCCNc2ccc(S(=O)(=O)C(C)C)cc2)nc(N)n1` [Example 160, 6-(3-chloro-2-methyl-phenyl)-N4-[2-(4-isopropylsulfonylanilino)ethyl]pyrimidine-2,4-diamine], the IC50 with cancer cell is less than 500 nM; against MTH1, less than 200 nM.

Regarding `Cc1c(Cl)cccc1-c1cc(NCCNc2ccc([S+](C)[O-])cc2)nc(N)n1` (stereo not shown) [Example 161, 6-(3-chloro-2-methyl-phenyl)-N4-[2-(4-methylsulfinylanilino)ethyl]pyrimidine-2,4-diamine], the figures for the IC50 in the test on cancer cell and against MTH1 were less than 500 nM and less than 200 nM, respectively.

Take `Cc1c(Cl)cccc1-c1cc(NCCCNc2ccc(S(N)(=O)=O)cc2)nc(N)n1` [Example 163, 4-[3-[[2-amino-6-(3-chloro-2-methyl-phenyl)pyrimidin-4-yl]amino]propylamino]benzenesulfonamide]: the 50% inhibitory concentration (IC50) in the test on cancer cell is less than 500 nM; at MTH1, less than 200 nM.

In the case of `Cc1c(Cl)cccc1-c1cc(NCC(C)(C)CNc2ccc(S(N)(=O)=O)cc2)nc(N)n1` [Example 164, 4-[[3-[[2-amino-6-(3-chloro-2-methyl-phenyl)pyrimidin-4-yl]amino]-2,2-dimethyl-propyl]amino]benzenesulfonamide], the values for the half-inhibitory concentration (IC50) in the test with cancer cell and on MTH1 were less than 500 nM and less than 200 nM, respectively.

On to `Cc1nc2ccc(NCC(C)(C)CNc3cc(-c4cccc(Cl)c4C)nc(N)n3)cc2s1` [Example 165, 6-(3-chloro-2-methyl-phenyl)-N4-[2,2-dimethyl-3-[(2-methyl-1,3-benzothiazol-6-yl)amino]propyl]pyrimidine-2,4-diamine], for which the IC50 is less than 500 nM in the test with cancer cell and less than 200 nM against MTH1.
